In PubChem BioAssay AID179 (DTP/NCI, 2004) one finds EC50, IC50 and outcome data, which are given here for 72 compounds.

For this test, the system named is CEM cells HIV-1 protection, formazan growth assay. In words: NCI AIDS Antiviral Assay. The conditions noted are these: for IC50: measured here: growth of uninfected CEM cells. In short, it runs like this: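 Human CEM cells, uninfected and HIV-1-infected, exposed to five drug concentrations; growth measured by soluble formazan assay and scored as percent protection from infection, with protecting compounds retested.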

Activity calls are given as the source filed them.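 Rule for the calls: active = compounds giving half or more protection of infected cells from virus-caused growth loss, again on retest; inactive = the rest.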 Where a SMILES comes first, the peptide text is derived from it. A value given as a limit tells only on which side of the number the result lay.

In general, EC50 refers to the midpoint of the concentration-response curve. One may read the IC50 as the point on the concentration scale where inhibition reaches its midpoint. A low value points to greater potency.

As to `Nc1ccc(N=O)c(N)n1`, the EC50 is more than 200 µM and the IC50 was more than 200 µM.
For `C[n+]1c2ccccc2c(/C=N\NS(=O)(=O)c2ccc(Cl)cc2)c2ccccc21`, the outcome was inactive.
Take `O=C(Nc1ccc(Cl)c(Cl)c1)N1c2ccccc2Sc2ccccc21`: the result was inactive.
As for `NCCSSCC(N)C(=O)O` (configuration not stated), the EC50 was more than 58.9 µM and the 50% inhibitory concentration (IC50) was more than 58.9 µM.
For `Cc1nc(C)c(C(=O)NNC(=O)C[N+](C)(C)C)cc1C(=O)NNC(=O)C[N+](C)(C)C`, the EC50 is more than 200 µM and the IC50 is more than 200 µM.
Consider `N#Cc1c2c(cn3c1nc1ccccc13)Cc1ccccc1-2`, for which the EC50 was more than 200 µM and the half-inhibitory concentration (IC50) was more than 200 µM.
As to `CCOC(=O)C1c2[nH]c3ccccc3c2CCN1C(=O)c1ccc(OC)o1` (configuration not stated), the EC50 is more than 51.3 µM and the half-maximal inhibitory concentration (IC50) is 38.9 µM.
As to `Cc1nc2ccc(S(=O)(=O)Nc3ccccc3)cc2c(=O)n1NC(=O)CNc1ccccc1`, the EC50 is more than 200 µM and the IC50 came out at 186 µM.
As for `CC1=C[C@H]2c3c([nH]c4ccccc34)C(c3c[nH]c4ccccc34)[C@H]2CC1` (some centres not stated), the result was inactive.
For `N#Cc1cc2c(n(C3OC(CO)C(O)C(O)C3O)c1=S)CCC2` (configuration not stated), the EC50 is more than 200 µM and the IC50 was more than 200 µM.
As to `CC1=NC(=Cc2ccc(Cl)cc2)C(=O)N1n1c(-c2ccccc2)nc2ccccc2c1=O`, the EC50 was more than 200 µM and the IC50 was 75.9 µM.
With `CC1CCC2CC(=O)OC([C@@H]3C(=O)O[C@@H](C4=CCCC4)C4C(C)CCC43)C12` (some centres not stated), the EC50 was more than 10 µM and the IC50 was more than 10 µM.
For the compound `Cc1ccc(C)c2c1OC(=O)C1CNCOC21` (configuration not stated), the EC50 is more than 50.1 µM and the half-inhibitory concentration (IC50) was more than 50.1 µM.
On to `CC(C)C(=O)[O-].CC(C)C(=O)[O-].N.N.N.N.[Co+3].[O-][Cl+3]([O-])([O-])[O-]`, for which the result was inactive.
Regarding `Cc1ccc(C2=Nn3c(nc4sc(-c5ccccc5)cc4c3=O)SC2)cc1`, the EC50 was more than 100 µM and the IC50 is more than 100 µM.
Take `O=[N+]([O-])c1ccc(-c2nc3c(o2)CCC3)cc1`: the EC50 was more than 200 µM and the concentration for half-maximal inhibition (IC50) was 195 µM.
For `Cn1c(COC(=O)Nc2ccccc2)c(COC(=O)Nc2ccccc2)c2ccc3cc(Cl)c(Cl)cc3c21`, in that order: more than 200 µM and 0.468 µM.
As for `COc1ccc(-c2c(C3=NCCCN3)nnn2-c2ccc(Cl)cc2)cc1`, the EC50 was 14.1 µM and the concentration for half-maximal inhibition (IC50) was found to be 85.1 µM.
Take `CCCC(Cc1ccccc1)N1CCCC1` (configuration not stated): the EC50 was more than 200 µM and the 50% inhibitory concentration (IC50) was more than 200 µM.
As for `Cn1ncc2[nH]cnc2c1=S`, the EC50 was more than 200 µM and the IC50 came to 26.9 µM.
As to `C=C(C)CC1=C(OCC)C(OC)(OCC)C1=O` (configuration not stated), the EC50 was more than 200 µM and the half-inhibitory concentration (IC50) is more than 200 µM.
Turning to `CC(C)NCCCNc1c2ccccc2nc2cccc([N+](=O)[O-])c12`, the EC50 was more than 0.2 µM and the IC50 amounted to 0.0316 µM.
The matching figures for `O=c1[nH]c(O)c(/C=N\C(=S)Nc2cc(Cl)ccc2Cl)c(=O)[nH]1`: more than 200 µM and 162 µM.
With `CN1CCN2c3ccccc3CC(C#N)(C#N)C2C1` (configuration not stated), the result was inactive.
On to `CCCCCCCCCCCCCCCc1cccc(O)c1C(=O)O`, for which the outcome was inactive.
The same measure, in the same setting: the entry for `C=CC(C)(C)c1cccc2[nH]c3c(c12)CC1CCC2(O)C4=CC(=O)C5OC4(CCC2(C)[C@@]31C)OC5(C)C` (some centres not stated) is “inactive”.
`CC(=O)OCc1c(O)c2c([nH]c1=O)CCc1ccccc1-2`: the EC50 is more than 25.1 µM and the half-inhibitory concentration (IC50) is more than 25.1 µM.
Consider `COC(=O)C(Cc1ccccc1)NP(=O)(O)OCC1OC(n2cc(F)c(=O)[nH]c2=O)CC1O` (configuration not stated), for which the EC50 is more than 200 µM and the IC50 stood at 58.9 µM.
With `O=c1c2c(-c3ccccc3)c3ccccc3nc2cnn1-c1ccccc1`, the EC50 is more than 79.4 µM and the half-maximal inhibitory concentration (IC50) is more than 79.4 µM.
Turning to `CC(=O)O[C@H]1CC[C@@]2(C)C(=CC[C@@H]3C2CC[C@@]2(C)C3CC[C@@H]2c2nc(C)cs2)C1` (some centres not stated), the EC50 is more than 60.3 µM and the IC50 is more than 60.3 µM.
With `CC(=O)/C(=C/n1c(=S)[nH]c2ccccc21)C(=O)Nc1ccc([N+](=O)[O-])cc1`, the EC50 is more than 200 µM and the half-maximal inhibitory concentration (IC50) was 105 µM.
In the case of `CC(C)C(Sc1nc(-c2ccccc2)c(-c2ccccc2)[nH]1)C(=O)N/N=C/c1ccc([N+](=O)[O-])cc1` (configuration not stated), the EC50 was more than 14.5 µM and the IC50 is more than 14.5 µM.
For the compound `CC1(C)CNCC(C)(OCc2ccccc2)C(=O)NC(C)(C)CNCC(C)(OCc2ccccc2)C(=O)N1` (configuration not stated), the EC50 is 3.8 µM and the IC50 stood at 24.5 µM.
For the compound `COC(=O)C1(Cc2ccc3c(c2)CCC3)Cc2cc3c(cc2C1)CCC3`, the EC50 is more than 200 µM and the IC50 was more than 200 µM.
As to `COC(=O)C1(C)CC(c2ccccc2)=NC1c1ccccc1` (configuration not stated), the EC50 is more than 123 µM and the concentration for half-maximal inhibition (IC50) was more than 123 µM.
For `OC1COC(n2c3ccc(Br)cc3c3ccc4c5ccccc5[nH]c4c32)C(O)C1O` (configuration not stated), the EC50 was more than 112 µM.
With `NS(=O)(=O)c1ccc(NC(=O)COC(=O)c2cccc3c(=O)c4ccccc4[nH]c23)cc1`, the outcome was inactive.
On to `COc1nc2[nH]c(C)cc(=O)c2c2ccccc12`, for which the EC50 is more than 200 µM and the IC50 is more than 200 µM.
In the case of `CCOC(=O)NP(=O)(Nc1ccc(C)cc1)Nc1ccc(C)cc1`, the EC50 was more than 200 µM and the IC50 is more than 200 µM.
With `C/C=C(\C(=O)OC)C1CC2OC(=O)C1(C=O)C13CCNC21N(C)c1ccccc13` (configuration not stated), the EC50 is more than 126 µM and the 50% inhibitory concentration (IC50) was found to be 117 µM.
For `Cn1c(-c2ccccc2)c(CCNC(=O)C2CCC2)c2ccccc21`, in that order: more than 200 µM and 31.6 µM.
The matching figures for `COc1ccccc1C1OCC(C)(C)N1C` (configuration not stated): more than 200 µM and 14.5 µM.
With `COc1ccc(Nc2c(C#N)c3n(c4ccccc24)c2ccccc2[n+]3C)cc1OC`, the EC50 was more than 200 µM and the IC50 came out at 3.09 µM.
Regarding `Cc1ccccc1CC1(Br)CC(C)(C)c2ccccc2C1=O` (configuration not stated), the EC50 is more than 200 µM and the 50% inhibitory concentration (IC50) came to 29.5 µM.
With `COC(=O)C(N)CSSCC(N)C(=O)OC` (configuration not stated), the EC50 was more than 324 µM and the IC50 came out at 123 µM.
Turning to `O=C1OC(=O)c2c1ccc1ccc(Cl)cc21`, the result was inactive.
Turning to `O=C(/C=C/c1ccc(O)c(O)c1)OC1CC(O)(C(=O)O)CC(O)C1O` (configuration not stated), the EC50 is more than 200 µM and the IC50 worked out at 91.2 µM.
For the compound `C[N+](C)(C)c1cc2c(nn1)Nc1ccccc1S2`, the EC50 is more than 200 µM and the half-inhibitory concentration (IC50) turned out to be 10 µM.
The matching figures for `COCOC1/C=C/CCCCC(=O)C(C)C#CC1` (configuration not stated): more than 200 µM and 7.24 µM.
For `CCCCCCCC1(N=[N+]=[N-])C(=O)Nc2ccccc2C1=O` (configuration not stated), the EC50 was more than 200 µM and the IC50 is 20 µM.
Consider `NC(=O)C(N)(c1ccccc1)c1ccccc1`, for which the outcome was inactive.
On to `CCOC(=O)c1c(-c2ccc(OC)cc2)c(C#N)c(=S)n(C2OC(COC(C)=O)C(OC(C)=O)C(OC(C)=O)C2OC(C)=O)c1-c1ccccc1` (configuration not stated), for which the EC50 was more than 200 µM and the 50% inhibitory concentration (IC50) was 25.7 µM.
As to `[N-]=[N+]=NC1=C(c2ccccn2)C(=O)c2cccc3cccc1c23`, the EC50 is more than 200 µM and the IC50 turned out to be 4.17 µM.
On to `O=C1CSC2=NCCN12`, for which the EC50 is more than 200 µM, the result was inactive and the 50% inhibitory concentration (IC50) was more than 200 µM.
On to `CCOC(=O)C(c1ccccc1)[N+](C)(C)C` (configuration not stated), for which the EC50 was more than 200 µM and the IC50 is more than 200 µM.
Regarding `COc1cc(C)c(O)c(C(=O)O)c1`, the result was inactive.
For `CC[N+]1(C)CCC(O)(c2ccc(OC)cc2)C(C(=O)c2ccc(OC)cc2)C1` (configuration not stated), the EC50 was more than 200 µM and the half-inhibitory concentration (IC50) came to 10.2 µM.
On to `CC(=O)c1c2c(cc3c1CC1(C3)Cc3ccc4c(c3C1=O)CCC4)CCC2` (configuration not stated), for which the EC50 is more than 200 µM and the concentration for half-maximal inhibition (IC50) was found to be 40.7 µM.
As for `CC(C)OC(=S)SSSC(=S)OC(C)C`, the EC50 is more than 200 µM and the IC50 is 19.1 µM.
As for `CCOC(=O)c1sc2[n+](c1C)C(=O)/C(=C/c1ccc([N+](=O)[O-])cc1)S2`, the EC50 was more than 200 µM and the IC50 was determined as 20.4 µM.
Consider `Nc1cc(F)ccc1CC(=O)O`, for which the EC50 is more than 200 µM and the IC50 was more than 200 µM.
With `NC(=S)N/N=C/c1cc2c3c(c1)CCCN3CCC2`, the EC50 was more than 200 µM and the half-maximal inhibitory concentration (IC50) is more than 200 µM.
For the compound `CCC(C)C(NC(=O)C(CCCN=C(N)N)NC(=O)C(CC(=O)O)NC(=O)C(Cc1ccc(O)cc1)NC(=O)C(N)CC(C)C)C(=O)NC(C(=O)NC(CC(C)C)C(=O)NC(CCCN=C(N)N)C(=O)NC(Cc1ccc(O)cc1)C(=O)O)C(C)CC` (configuration not stated) (H-LYDRIILRY-OH; configuration not given here), the EC50 was more than 10.2 µM and the IC50 is more than 10.2 µM.
Consider `Cc1cn(C2OC(CO)C(CC(N)=O)C2O)c(=O)[nH]c1=O` (configuration not stated), for which the EC50 was more than 200 µM and the IC50 was more than 200 µM.
In the case of `Nc1cc(Cl)ccc1N1C(=O)CCC1=O`, the EC50 was 166 µM and the concentration for half-maximal inhibition (IC50) is more than 200 µM.
Regarding `CS(=O)CC(=O)c1ccccn1` (configuration not stated), the EC50 is more than 200 µM and the IC50 is more than 200 µM.
As to `Cc1cc(N=O)cc(Cl)c1O`, the EC50 is more than 200 µM and the IC50 is 10.5 µM.
Turning to `COc1cc(C)cc2c(-c3c(O)cc(O)c4c3C[C@H](C)N[C@H]4C)cc(-c3cc(-c4c(O)cc(O)c5c4C[C@H](C)N[C@H]5C)c4cc(C)cc(OC)c4c3O)c(O)c12`, the half-maximal effective concentration (EC50) was 14.1 µM and the half-maximal inhibitory concentration (IC50) turned out to be 95.5 µM.
Regarding `Cc1ccc(SC(CCC(Sc2ccc(C)cc2)Sc2ccc(C)cc2)Sc2ccc(C)cc2)cc1`, the outcome was inactive.
Consider `ONC1=Nc2cc(Cl)ccc2C(=S)N2CSCC12` (configuration not stated), for which the EC50 is more than 200 µM and the IC50 was more than 200 µM.
With `COc1ccc(CC2c3c(cc(OC)c(OC)c3OC)CCN2C)cc1OC` (configuration not stated), the EC50 is more than 589 µM and the half-inhibitory concentration (IC50) turned out to be 158 µM.
As to `CC1(C)OCC2OC3([C@H]4OC(C)(C)O[C@@H]4CO)OC(C)(C)OC3C2O1` (some centres not stated), the EC50 was more than 200 µM and the IC50 is more than 200 µM.
